This is an account of results in patent US20260115177A1, “MEDICINAL PRODUCTS AND METHODS FOR THE ALLEVIATION OF CANCER IMMUNOTHERA-PY-ASSOCIATED CYTOKINE RELEASE SYNDROME” (POOLBEG PHARMA (UK) LIMITED, priority 2023, published 2026).

Format in all cases: cell-based, human
One assay has as its system THP-1 monocytes. Description: IL-6 ELISA of THP-1 monocytes treated with sCAR. The settings on record: sCAR stimulation, 24 hours; concentrations of Table 2. The method, then: In Example 3 below, sCAR (or smCAR) is added using a micropipette to an in vitro culture of monocyte cells of the human monocytic cell line THP-1, available from the American Type Culture Collection. The culture is incubated in a closed incubator at 37° C. with 5% CO2 and a suitably humid atmosphere for approximately 24 hours, following which cytokine release is observed. p38 MAPK activation and cytokine release are confirmed by evaluation of the presence of IL-6 in THP-1 cells using an enzyme-linked immunosorbent assay (ELISA; for which a kit is suitably obtainable from Thermo Fisher Scientific of Kingfisher Dr, Swindon SN3 5BZ, UK).
(i) Monocytes sCAR (or smCAR), produced as described in Example 1 above, is added to a monoculture of THP-1 monocytes in the presence of UR-13870, Ralimetinib or Acumapimod at each of the concentrations shown in Table 2 above at 37° C., 5% CO2 and a suitably humid environment for 24 hours.
Supernatant levels of IL-6 from the THP-1 monocyte monoculture with sCAR (or smCAR) are determined by ELISA.

In the next assay the test system is HUVEC endothelial cells. Description: QPCR of VCAM1, ICAM1 and IL-6 in HUVEC cells treated with sCAR. To be noted: 24 hours. On the procedure: In like manner and also in Example 3 below, sCAR (or smCAR) is added to endothelial (HUVEC) cells, available from the American Type Culture Collection, and using an equivalent protocol to the treatment of THP-1 cells (but with individually optimised conditions, such as the concentration of sCAR used), following which IL-6 release and IL-8 release are observed. Pro-inflammatory cytokines IL-6 and IL-8 are measured using an enzyme-linked immunosorbent assay (ELISA) and IL-6, ICAM1 and VCAM1 are measured by quantitative PCR (QPCR, for which a kit is suitably obtainable from Thermo Fisher Scientific of Kingfisher Dr, Swindon SN3 5BZ, UK).
sCAR (or smCAR), produced as described in Example 1 above, is added to a monoculture of HUVEC endothelial cells in the presence of UR-13870, Ralimetinib or Acumapimod at each of the concentrations shown in Table 2 above, at 37° C., 5% CO2 and a suitably humid environment for 24 hours.

Another assay concerns CAR T cells. Description: CAR T cell proliferation in CAR T cell:cancer cell co-culture (Cell Trace Violet, flow cytometry). The settings on record: CAR T:tumour cell co-culture 1:1; concentrations of Table 2. The method, then: CAR T cell proliferation is confirmed by Cell Trace™ Violet staining of CAR T cells (staining agent having been added prior to addition of the T cells to the co-cultures with tumour cells). Staining may be observed, following co-culture, via flow cytometry.
(§1) UR-13870, Ralimetinib or Acumapimod are each added to a culture of CD19+ cancer cells (using a micropipette to transfer the correct volume to achieve the desired final concentration in Table 2).
(§2) CAR T cells are then added to the same culture 5-10 minutes later. In brief, CAR T cell concentrations per ml are determined and used to aliquot the desired number of CAR T cells into the culture to achieve the described 1:1 CAR T to cancer cell ratio.
(§3) The co-culture containing CAR T cells and tumour cells is swirled gently to ensure homogenous dispersion of cells throughout the vessel. The resultant co-culture is incubated for 24 to 96 hours in a closed incubator at 37° C. with 5% CO2 and a suitably humid atmosphere.
Background: Flow cytometry measures light scatter and fluorescence of single cells or particles in a stream.

The next assay has as its system CD19+ cancer cells. Description: CAR T cell killing of tumour cells in 24-hour co-culture (flow cytometry). The settings on record: high dose only, CAR T to cancer cell ratio 1:1.
Text: Raji immortalized human B cell line CD19-expressing cancer cells (available from the American Type Culture Collection) are acquired and stable transfection of the Raji cell line is generated with an mCherry reporter protein to facilitate identification of the cancer cells within co-cultures by detection of the mCherry protein fluorescence by flow cytometry.
as §1, §2, §3
Tumour cell death is observed by examining relative CAR T cell:tumour cell numbers by flow cytometry following 24 hour co-culture, as shown in FIG. 7.

For `OCCCn1cc2c(-c3ccc(F)cc3)c(-c3ccncc3)c(-c3ccc(F)cc3)nc2n1` [UR-13870, 6-bis(4-fluorophenyl)-5-(4-pyridinyl)-2Hpyrazolo[3,4-b]pyridine-2-propanol], the “IL-6 secretion by THP-1 monocytes” value in the assay with THP-1 monocytes was “significantly reduce”. For the same compound, in the assay with HUVEC endothelial cells, the “ICAM1 mRNA levels” value is “significantly reduce”; the “IL-6 mRNA levels” value is recorded as “significantly reduce”; the “VCAM1 mRNA levels” value is listed as “reduced, albeit non-significantly”. The “CAR T cell proliferation (Cell Trace Violet staining)” value in the assay with CAR T cells is reported as “maintain CAR T cell proliferation”. Besides, the “CAR T cell-induced cancer cell death (percentage of residual tumour cells in the co-culture)” value in the assay with CD19+ cancer cells is listed as “maintain CAR T cell-induced cancer cell death”.
